Test results reported in publication PMC12717099, “Peptidoglycan recruitment by a penicillin binding protein” (Nature Communications, 2025).

Key:
Type in all cases: cell-based, Enterococcus faecium
[1] = system: E. faecium D344SRF, Wild Type; conditions: strain Wild Type; disks Ampicillin 10 μg, Penicillin 10 U, Ceftriaxone 30 μg; BHI agar, 37 °C, 24 h; n=3
Experimental: (§1) E. faecium strains were streaked fresh from −80 °C stored glycerol stocks onto brain heart infusion (BHI) agar plates and incubated for 18 h at 37 °C. Strains harboring the plasmid derivatives were grown under antibiotic pressure on agar plates containing kanamycin at 1500 µg/ml. A single colony was inoculated into BHI or BHI-kanamycin (1500 µg/ml) for overnight cultures (18 h).
(§2) Antibiotic disks used were manufactured by BD BBL^TM. Disk diffusion assays were performed according to the Clinical and Laboratory Standards Institute (CLSI) guidance. Overnight cultures were inoculated into 3 ml of BHI or BHI-kanamycin (1500 µg/ml) broth with a dilution of 1:100 and incubated until an OD600 of ~0.5 was reached. The OD600 was adjusted to 0.01 to get the inoculum suspension. […] The plates were incubated at 37 °C and the zones of inhibition were measured after 24 h. All experiments were conducted in triplicate.

[2] = system: E. faecium D344SRF pCWR624 (PBP5 plasmid); assay: Disk diffusion assay, pCWR624; conditions: strain pCWR624; 37 °C, 24 h; n=3
Experimental: (§3) The synthetic genes were purchased from GeneWiz (South Plainfield, NJ). The ribosome binding site sequence AGGAGG (Shine-Dalgarno), and a string of five A’s followed by the sequence […], that corresponds to the first 15 bp found in pbp5 from E. faecium C68 were added upstream of the START codon. The terminator sequence […] was added downstream of the STOP codon. BamHI restriction sites were added to the flanking 5′ and 3′ ends. The synthetic genes were inserted into the vector pCWR624Δpbp5. This vector was derived from pCWR624[10], in which the pbp5 gene from D366 was excised by digestion with BamHI followed by re-ligation of the vector, allowing subsequent insertion of modified synthetic pbp5s into the BamHI site downstream of ftsWEfm and psr from E. faecium C68[10]. The synthetic genes were inserted in a BamHI site located downstream of psr. The proper orientation was confirmed by PCR amplification using the forward primer OR_pbp5_FOR_1 (5′-[…]-3′) and the reverse primer OR_pbp5_REV_1 (5′-[…]-3′). Plasmids were sequence verified for the specific binding site mutations. The resulting constructions were electroporated into the natural pbp5(-) mutant E. faecium D344SRF with a selection on brain heart infusion agar (BHI) plates containing kanamycin (1500 µg/ml).
as §1
as §2, with “reached.” for “reached. The OD600 was adjusted to 0.01 to get the inoculum suspension.”, “All experiments were conducted in triplicate.” left out

[3] = system: E. faecium D344SRF pCWR624Δpbp5 (empty plasmid); assay: Disk diffusion assay, pCWR624Δpbp5; conditions: strain pCWR624Δpbp5; 37 °C, 24 h; n=3
Experimental: as §3, §1
as §2, with “reached.” for “reached. The OD600 was adjusted to 0.01 to get the inoculum suspension.”, “All experiments were conducted in triplicate.” left out

[4] = system: E. faecium D344SRF pCWR624Δpbp5_pbp5_V1; assay: Disk diffusion assay, pbp5_V1; conditions: strain pbp5_V1 (N523A); 37 °C, 24 h; n=3
Experimental: as §3, §1
as §2, with “reached.” for “reached. The OD600 was adjusted to 0.01 to get the inoculum suspension.”, “All experiments were conducted in triplicate.” left out

[5] = system: E. faecium D344SRF pCWR624Δpbp5_pbp5_V2; assay: Disk diffusion assay, pbp5_V2; conditions: strain pbp5_V2 (N523A_Q627A); 37 °C, 24 h; n=3
Experimental: as §3, §1
as §2, with “reached.” for “reached. The OD600 was adjusted to 0.01 to get the inoculum suspension.”, “All experiments were conducted in triplicate.” left out

[6] = system: E. faecium D344SRF pCWR624Δpbp5_pbp5_V3; assay: Disk diffusion assay, pbp5_V3; conditions: strain pbp5_V3 (loop 625-631); 37 °C, 24 h; n=3
Experimental: as §3, §1
as §2, with “reached.” for “reached. The OD600 was adjusted to 0.01 to get the inoculum suspension.”, “All experiments were conducted in triplicate.” left out

[7] = system: E. faecium D344SRF pCWR624Δpbp5_pbp5_V4; assay: Disk diffusion assay, pbp5_V4; conditions: strain pbp5_V4 (D530A_L533A_W457A); 37 °C, 24 h; n=3
Experimental: as §3, §1
as §2, with “reached.” for “reached. The OD600 was adjusted to 0.01 to get the inoculum suspension.”, “All experiments were conducted in triplicate.” left out

[8] = system: E. faecium D344SRF pCWR624Δpbp5_pbp5_V5; assay: Disk diffusion assay, pbp5_V5; conditions: strain pbp5_V5 (Q396A_E397A); 37 °C, 24 h; n=3
Experimental: as §3, §1
as §2, with “reached.” for “reached. The OD600 was adjusted to 0.01 to get the inoculum suspension.”, “All experiments were conducted in triplicate.” left out

[9] = system: E. faecium D344SRF pCWR624Δpbp5_pbp5_V6; assay: Disk diffusion assay, pbp5_V6; conditions: strain pbp5_V6 (E284A_E291A_S294A_N295A); 37 °C, 24 h; n=3
Experimental: as §3, §1
as §2, with “reached.” for “reached. The OD600 was adjusted to 0.01 to get the inoculum suspension.”, “All experiments were conducted in triplicate.” left out

[10] = system: E. faecium D344SRF, Wild Type; assay: MIC by broth microdilution, Wild Type; conditions: strain Wild Type; BHI broth microdilution, 37 °C, 20 h, read by eye; n=3
Experimental: as §1
(§4) MIC determination was performed using a standard broth microdilution technique in duplicate from independent cultures. Overnight cultures were inoculated into 3 ml of BHI or BHI-kanamycin (1500 µg/ml) broth in a dilution of 1:100 and incubated until an OD600 of ~0.5 was reached. Cultures were diluted 1:1000 and inoculated into the 96-well plates with the corresponding antibiotics to be tested. Plates were incubated at 37 °C for 20 h and read by eye. The MICs were defined as the lowest antibiotic concentration that inhibited growth.

[11] = system: E. faecium D344SRF pCWR624 (PBP5 plasmid); assay: MIC by broth microdilution, pCWR624; conditions: strain pCWR624; 37 °C, 20 h; n=3
Experimental: as §3, §1
as §4, with “The MICs were defined as the lowest antibiotic concentration that inhibited growth.” left out

[12] = system: E. faecium D344SRF pCWR624Δpbp5 (empty plasmid); assay: MIC by broth microdilution, pCWR624Δpbp5; conditions: strain pCWR624Δpbp5; 37 °C, 20 h; n=3
Experimental: as §3, §1
as §4, with “The MICs were defined as the lowest antibiotic concentration that inhibited growth.” left out

[13] = system: E. faecium D344SRF pCWR624Δpbp5_pbp5_V1; assay: MIC by broth microdilution, pbp5_V1; conditions: strain pbp5_V1 (N523A); 37 °C, 20 h; n=3
Experimental: as §3, §1
as §4, with “The MICs were defined as the lowest antibiotic concentration that inhibited growth.” left out

[14] = system: E. faecium D344SRF pCWR624Δpbp5_pbp5_V3; assay: MIC by broth microdilution, pbp5_V3; conditions: strain pbp5_V3 (loop 625-631); 37 °C, 20 h; n=3
Experimental: as §3, §1
as §4, with “The MICs were defined as the lowest antibiotic concentration that inhibited growth.” left out

[15] = system: E. faecium D344SRF pCWR624Δpbp5_pbp5_V5; assay: MIC by broth microdilution, pbp5_V5; conditions: strain pbp5_V5 (Q396A_E397A); 37 °C, 20 h; n=3
Experimental: as §3, §1
as §4, with “The MICs were defined as the lowest antibiotic concentration that inhibited growth.” left out

[16] = system: E. faecium D344SRF pCWR624Δpbp5_pbp5_V6; assay: MIC by broth microdilution, pbp5_V6; conditions: strain pbp5_V6 (E284A_E291A_S294A_N295A); 37 °C, 20 h; n=3
Experimental: as §3, §1
as §4, with “The MICs were defined as the lowest antibiotic concentration that inhibited growth.” left out

[17] = system: E. faecium D344SRF pCWR624Δpbp5_pbp5_V2; assay: MIC by broth microdilution, pbp5_V2; conditions: strain pbp5_V2 (N523A_Q627A); 37 °C, 20 h; n=3
Experimental: as §1

[18] = system: E. faecium D344SRF pCWR624Δpbp5_pbp5_V4; assay: MIC by broth microdilution, pbp5_V4; conditions: strain pbp5_V4 (D530A_L533A_W457A); 37 °C, 20 h; n=3
Experimental: as §3, with “The resulting constructions were electroporated into the natural pbp5(-) mutant E. faecium D344SRF with a selection on brain heart infusion agar (BHI) plates containing kanamycin (1500 µg/ml).” left out
MIC determination was performed using a standard broth microdilution technique in duplicate from independent cultures. […] Plates were incubated at 37 °C for 20 h and read by eye. […]

| Structure (SMILES) | Zone Size (mm) [Range] [1] | Zone Size (mm) [Range] [2] | Zone Size (mm) [Range] [3] | Zone Size (mm) [Range] [4] | Zone Size (mm) [Range] [5] | Zone Size (mm) [Range] [6] | Zone Size (mm) [Range] [7] | Zone Size (mm) [Range] [8] | Zone Size (mm) [Range] [9] | MIC (µg/ml) [Range] [10] | MIC (µg/ml) [Range] [11] | MIC (µg/ml) [Range] [12] | MIC (µg/ml) [Range] [13] | MIC (µg/ml) [Range] [14] | MIC (µg/ml) [Range] [15] | MIC (µg/ml) [Range] [16] | MIC (µg/ml) [Range] [17] | MIC (µg/ml) [Range] [18] |
| --- | --- | --- | --- | --- | --- | --- | --- | --- | --- | --- | --- | --- | --- | --- | --- | --- | --- | --- |
| CC1(C)S[C@@H]2[C@H](NC(=O)[C@H](N)c3ccccc3)C(=O)N2[C@H]1C(=O)O [Ampicillin] | 32 [30-32] mm | 0 [0] mm | 30 [30-32] mm | 16 [14-16] mm | 26 [26-28] mm | 32 [30-32] mm | 32 [32] mm | 0 [0-10] mm | 0 [0-10] mm | 0.39 [0.39-0.78] µg/ml | 100 [100->200] µg/ml | 0.78 [0.39-1.56] µg/ml | 100 [50-100] µg/ml | < 0.19 [<0.19-0.39] µg/ml | 100 [100] µg/ml | 100 [100] µg/ml | – | – |
| CC1(C)S[C@@H]2[C@H](NC(=O)Cc3ccccc3)C(=O)N2[C@H]1C(=O)O [Penicillin, penicillin G] | 28 [28-32] mm | 0 [0] mm | 28 [28-32] mm | 0 [0] mm | 26 [26-28] mm | 32 [30-32] mm | 32 [30-32] mm | 0 [0] mm | 0 [0] mm | 0.39 [0.39-0.78] µg/ml | > 200 [>200] µg/ml | 0.39 [0.39-1.56] µg/ml | 200 [200] µg/ml | 0.39 [0.39] µg/ml | 200 [200] µg/ml | 200 [200] µg/ml | 12.5 [12.5-25] µg/ml | 0.39 [0.39] µg/ml |
